Assay results taken from patent US20180289713A1, “COMPOUNDS FOR TREATING AMYOTROPHIC LATERAL SCLEROSIS” (Hoffmann-La Roche Inc., priority 2015, published 2018).

Tests used:
patients with ALS = conditions: cited from earlier work
[1] = tested on: SMN levels in SOD1-ALS iPS cell and TDP43-47A iPS cell line; conditions: dose dependent; SOD1-ALS and TDP43-47A iPSC-derived ALS models; cited from earlier work
[2] = tested on: full length SMN2 minigene mRNA (HEK293H cell line stably transfected with SMN2-A minigene); experiment: SMN2 minigene mRNA splicing RT-qPCR assay in cultured cells; format: cell-based; conditions: HEK293-H, concentration raising full length SMN2 minigene mRNA 1.5-fold vs vehicle, 24 hours, 7-point curve, read-out: EC1.5x minigene
Description: The term “EC1.5× concentration for production of full length SMN2 minigene mRNA” (or “EC1.5× minigene”) is defined as that concentration of test compound that is effective in increasing the amount of full length SMN2 minigene mRNA to a level 1.5-fold greater relative to that in vehicle-treated cells.
The reverse transcription-quantitative PCR-based (RT-qPCR) assay is used to quantify the level of the full length SMN2 minigene (referred to herein by the term “FL SMN2mini”) mRNA containing SMN2 exon 7 in a HEK293H cell line stably transfected with said minigene and treated with a test compound. Materials used and respective sources are listed below in Table 1.
The SMN2-A minigene construct was prepared as described in International Patent Application WO2009/151546A1 page 145 paragraph [00400] to page 147 paragraph [00412](incl. FIG. 1 and FIG. 3 therein).
HEK293H cells stably transfected with the SMN2-A minigene construct (10,000 cells/well) are seeded in 200 μL of cell culture medium (DMEM plus 10% FBS, with 200 μg/mL hygromycin) in 96-well flat-bottom plates and the plate is immediately swirled to ensure proper dispersal of cells and the formation of an even monolayer of cells. Cells are allowed to attach for 6 hours. Test compounds are serially diluted 3.16-fold in 100% DMSO to generate a 7-point concentration curve. […]
Full length SMN2-A minigene and GAPDH mRNA are quantified using the primers and probes referenced in WO2014/209841A2 on page 80 in Table 1. […]
The increase in the abundance of the FL SMN2mini mRNA relative to that in cells treated with vehicle control is determined from real-time PCR data using a modified […] method (as described in Livak and Schmittgen, Methods, 2001, 25:402-8). The amplification efficiency E is calculated from the slope of the amplification curve for FL SMN2mini and GAPDH individually. The abundance of FL SMN2mini and GAPDH mRNA are then calculated as (1+E)^−Ct, where Ct is the threshold value for each amplicon. […]

[3] = tested on: SMN protein in SMA patient fibroblast cells; experiment: SMN protein assay in cultured cells (SMN HTRF); format: cell-based, human; conditions: concentration producing 1.5 times SMN protein vs vehicle; SMA patient fibroblasts, 48 hours, 7-point curve
Description: The term “EC1.5× concentration for SMN protein expression” (or “EC1.5× SMN protein”) is defined as that concentration of test compound that is effective in producing 1.5 times the amount of SMN protein in an SMA patient fibroblast cell compared to the amount produced from the vehicle control.
The SMN HTRF (homogeneous time resolved fluorescence) assay is used to quantify the level of SMN protein in SMA patient fibroblast cells treated with test compounds. Materials used and respective sources are listed below in Table 3.
Cells are thawed and cultured in DMEM-10% FBS for 72 hours. Cells are trypsinized, counted and re-suspended to a concentration of 25,000 cells/mL in DMEM-10% FBS. The cell suspensions are plated at 5,000 cells per well in a 96 well microtiter plate and incubated for 3 to […]. Test compounds are serially diluted 3.16-fold in 100% DMSO to generate a 7-point concentration curve. 1 μL of test compound solution is transferred to cell-containing wells and cells are incubated for 48 hours in a cell culture incubator (37° C., 5% CO2, 100% relative humidity). Triplicate samples are set up for each test compound concentration. After 48 hours, the supernatant is removed from the wells and 25 μL of the RIPA lysis buffer, containing protease inhibitors, is added to the wells and incubated with shaking at room temperature for 1 hour. 25 μL of the diluent is added and then 35 μL of the resulting lysate is transferred to a 384-well plate, where each well contains 5 μL of the antibody solution (1:100 dilution of anti-SMN d2 and anti-SMN kryptate in SMN reconstitution buffer). The plate is centrifuged for 1 minute to bring the solution to the bottom of the wells, then incubated overnight at room temperature. Fluorescence for each well of the plate at 665 nm and 620 nm is measured on an EnVision multilabel plate reader (Perkin-Elmer).
The normalized fluorescence signal is calculated for each sample, Blank and vehicle control well by dividing the signal at 665 nm by the signal at 620 nm. Normalizing the signal accounts for possible fluorescence quenching due to the matrix effect of the lysate. The ΔF value (a measurement of SMN protein abundance as a percent value) for each sample well is calculated by subtracting the normalized average fluorescence for the Blank control wells from the normalized fluorescence for each sample well, then dividing this difference by the normalized average fluorescence for the Blank control wells and multiplying the resulting value by 100. The ΔF value for each sample well represents the SMN protein abundance from test compound-treated samples. The ΔF value for each sample well is divided by the ΔF value for the vehicle control wells to calculate the fold increase in SMN protein abundance relative to the vehicle control. Table 4 provides EC1.5× concentrations for SMN protein expression that was obtained from the 7-point concentration data generated according to the above procedure for particular compounds of the present invention.
Table 5 provides the maximum fold increase of SMN protein that was obtained from the 7-point concentration data generated according to the above procedure for particular compounds of the present invention

| SMILES | EC (1.5-fold) [2] [µM] | EC1.5x SMN protein [3] [nM] | also measured |
| --- | --- | --- | --- |
| Nc1nc2ccc(OC(F)(F)F)cc2s1 [Riluzole] | – | – | improvement of muscular strength (patients with ALS; ALS patients, some reports): does not appear to provide any improvement of muscular strength; extension of life (patients with ALS; at least some patients with ALS): three |
| CCN1CCC(c2cc(C)c3nc(-c4cc5c(C)nc(C)cn5n4)cc(=O)n3c2)CC1 [SMN-C3] | – | – | increase of SMN levels [1]: up to 1.4 fold |
| Cc1cn2nc(-c3cc(=O)n4cc(N5CCNC(C)(C)C5)cc(C)c4n3)cc(C)c2n1 [Example 27, 2-(2,8-dimethylimidazo[1,2-b]pyridazin-6-yl)-7-(3,3-dimethylpiperazin-1-yl)-9-methyl-pyrido[1,2-a]pyrimidin-4-one] | 0.0399 | – | – |
| Cc1cn2nc(-c3cc(=O)n4cc(N5CCNC6(CC6)C5)ccc4n3)ccc2n1 [Example 19, 7-(4,7-diazaspiro[2.5]octan-7-yl)-2-(2-methylimidazo[1,2-b]pyridazin-6-yl)pyrido[1,2-a]pyrimidin-4-one] | 0.0102 | – | – |
| Cc1cn2nc(-c3cc(=O)n4cc(N5CCN6CCC[C@@]6(C)C5)ccc4n3)ccc2n1 [Example 16, 7-[(8aS)-8a-methyl-1,3,4,6,7,8-hexahydropyrrolo[1,2-a]pyrazin-2-yl]-2-(2-methylimidazo[1,2-b]pyridazin-6-yl)pyrido[1,2-a]pyrimidin-4-one] | – | 3 | – |
| Cc1cn2nc(-c3cc(=O)n4cc(N5CCN[C@H](C)C5)ccc4n3)ccc2n1 [Example 12, 2-(2-methylimidazo[1,2-b]pyridazin-6-yl)-7-[(3R)-3-methylpiperazin-1-yl]pyrido[1,2-a]pyrimidin-4-one] | – | 7.5 | – |
| Cc1cn2nc(-c3cc(=O)n4cc(N5C[C@@H](C)N[C@@H](C)C5)cc(C)c4n3)cc(C)c2n1 [Example 26, 2-(2,8-dimethylimidazo[1,2-b]pyridazin-6-yl)-7-[(3R,5S)-3,5-dimethylpiperazin-1-yl]-9-methyl-pyrido[1,2-a]pyrimidin-4-one] | 0.327 | – | – |
| Cc1cn2nc(-c3cc(=O)n4cc(N5CCN[C@@H](C)C5)cc(C)c4n3)ccc2n1 [Example 33, 9-methyl-2-(2-methylimidazo[1,2-b]pyridazin-6-yl)-7-[(3S)-3-methylpiperazin-1-yl]pyrido[1,2-a]pyrimidin-4-one] | – | 4 | – |
| Cc1cn2nc(-c3cc(=O)n4cc(N5C[C@H](C)N[C@@H](C)C5)cc(C)c4n3)ccc2n1 [Example 38, 7-[(3S,5S)-3,5-dimethylpiperazin-1-yl]-9-methyl-2-(2-methylimidazo[1,2-b]pyridazin-6-yl)pyrido[1,2-a]pyrimidin-4-one] | – | 3.1 | – |
